This is an account of results in US8158809B2 (priority 2003, dated 2012).

For this assay, the system named is HCT116. Put plainly: Cell colony formation assay. The format is cell-based. Particulars: 72 hours with drug, colonies counted after 7 days. As to the method:
This example provides directions for growing cells and testing compounds of the invention for their effect on the growth of the cells. All cells were purchased from DCTDC Tumor Repository, NCI, NIH.
The cells were incubated in a CO2 incubator at 37° C. for 5 hours for attachment to the bottom of Petri dishes. Drugs were made fresh in medium at ten times the final concentration, and then 0.3 ml of this stock solution was added to the 2.7 ml of medium in the dish. The cells were then incubated with drugs for 72 hours at 37° C. At the end of the incubation the drug-containing media were decanted, the dishes were rinsed with 4 ml of Hank's Balance Salt Solution (HBSS), 5 ml of fresh medium was added, and the dishes were returned to the incubator for colony formation. The cell colonies were counted using colony counter after incubation for 7 days for HCT116 cells and PC-3 cells and 8 days for VM46 cells, respectively. Cell survival (%) was calculated, as shown in Table I below for HCT 116 cells.

Take `COc1ccc(OCC(=O)OC2c3cc4c(cc3C(c3cc(OC)c(OC)c(OC)c3)C3C(=O)OCC23)OCO4)cc1` (stereo not drawn) [Compound 000329, Podophyllotoxin-4-O-ester of 4-methoxyphenoxyacetic acid]: the “In Vitro Efficacy: Survival (%) of HCT116” value (10 nM) is on record as 100%, the “In Vitro Efficacy: Survival (%) of HCT116” value (100 nM) is reported as 0% and the “In Vitro Efficacy: Survival (%) of HCT116” value (1000 nM) came out at 0%.
As to `COc1cc([C@@H]2c3cc4c(cc3[C@H](OC(=O)C(C)ON=C3c5cc([N+](=O)[O-])cc([N+](=O)[O-])c5-c5c3cc([N+](=O)[O-])cc5[N+](=O)[O-])[C@H]3COC(=O)[C@H]23)OCO4)cc(OC)c1OC` (stereo partly drawn) [Compound 000222, Podophyllotoxin-4-O-ester of (+)-2-(2,4,5,7-tetranitro-9-fluorenylideaminooxy)-propionic acid], the “In Vitro Efficacy: Survival (%) of HCT116” value (10 nM) stood at 100%, the “In Vitro Efficacy: Survival (%) of HCT116” value (100 nM) amounted to 1.46% and the “In Vitro Efficacy: Survival (%) of HCT116” value (1000 nM) was 0%.
For the compound `COc1cc([C@@H]2c3cc4c(cc3[C@H](OC(=O)COc3ccc(Br)cc3)[C@H]3COC(=O)[C@H]23)OCO4)cc(OC)c1OC` [Compound 000320, Podophyllotoxin-4-O-ester of 4-bromophenoxyacetic acid], the “In Vitro Efficacy: Survival (%) of HCT116” value reads like this: (10 nM) 100%; (100 nM) 0%; (1000 nM) 0%.
As to `COc1cc(C2c3cc4c(cc3C(OC(=O)c3ccc5c(c3)C(=O)c3ccccc3C5=O)C3COC(=O)C23)OCO4)cc(OC)c1OC` (stereo not drawn) [Compound 000121, Podophyllotoxin-4-O-ester of anthraquinone-2-carboxylic acid], the “In Vitro Efficacy: Survival (%) of HCT116” value is reported as 94.03% (100 nM) and 0% (1000 nM).
For `COc1cc([C@@H]2c3cc4c(cc3[C@H](OC(=O)c3cc(C(=O)O[C@H]5c6cc7c(cc6[C@@H](c6cc(OC)c(OC)c(OC)c6)[C@H]6C(=O)OC[C@@H]65)OCO7)cc([N+](=O)[O-])c3)[C@H]3COC(=O)[C@H]23)OCO4)cc(OC)c1OC` [Compound 000331, Bis(Podophyllotoxin-4-O-ester) of 5-nitroisophthalic acid] the same measures were 62.56% and 0%.
`COc1cc([C@@H]2c3cc4c(cc3[C@H](OC(=O)C3Cc5c([nH]c6ccccc56)CN3C(=O)OC(C)(C)C)[C@H]3COC(=O)[C@H]23)OCO4)cc(OC)c1OC` (stereo partly drawn) [Compound 000301, Podophyllotoxin-4-O-ester of N—BOC-1,2,3,4-Tetrahydro-β-carboline-3-carboxylic acid]: the “In Vitro Efficacy: Survival (%) of HCT116” value (100 nM) was found to be 84.08% and the “In Vitro Efficacy: Survival (%) of HCT116” value (1000 nM) turned out to be 0%.
In the same order, the values of `COc1cc(C2c3cc4c(cc3C(OC(=O)CCCc3ccc(N(CCCl)CCCl)cc3)C3COC(=O)C23)OCO4)cc(OC)c1OC` (stereo not drawn) [Compound 0003132, Podophyllotoxin-4-O-ester of 4-(4-dichloroethylamino) phenylbutyric acid] are 97.65% and 0%.
In the case of `COc1cc([C@@H]2c3cc4c(cc3[C@H](OC(=O)c3cncc(C(=O)O[C@H]5c6cc7c(cc6[C@@H](c6cc(OC)c(OC)c(OC)c6)[C@H]6C(=O)OC[C@@H]65)OCO7)c3)[C@H]3COC(=O)[C@H]23)OCO4)cc(OC)c1OC` [Compound 000330, Bis(Podophyllotoxin-4-O-ester) of 3,5-Pyridinedicarboxylic acid], the “In Vitro Efficacy: Survival (%) of HCT116” value turned out to be 100% (10 nM), 0% (100 nM) and 0% (1000 nM).
On to `COc1cc([C@@H]2c3cc4c(cc3[C@H](OC(=O)COc3ccc(F)cc3)[C@H]3COC(=O)[C@H]23)OCO4)cc(OC)c1OC` [Compound 000615, Podophyllotoxin-4-O-ester of 4-fluorophenoxyacetic acid], for which the “In Vitro Efficacy: Survival (%) of HCT116” value stood at 100% (10 nM), 0% (100 nM) and 0% (1000 nM).
On to `COc1cc(C2c3cc4c(cc3C(OC(=O)c3cc(-c5ccccc5)nc5ccccc35)C3COC(=O)C23)OCO4)cc(OC)c1OC` (stereo not drawn) [Compound 000125, Podophyllotoxin-4-O-ester of 2-phenyl-4-quinolinecarboxylic acid], for which the “In Vitro Efficacy: Survival (%) of HCT116” value was 90.34% (100 nM) and 0% (1000 nM).
On to `COc1cc([C@@H]2c3cc4c(cc3[C@H](OC(=O)COc3ccc(Cl)cc3Cl)[C@H]3COC(=O)[C@H]23)OCO4)cc(OC)c1OC` [Compound 000324, Podophyllotoxin-4-O-ester of 2,4-dichlorophenoxyacetic acid], for which the “In Vitro Efficacy: Survival (%) of HCT116” value by setting is: (10 nM) 100%; (100 nM) 0%; (1000 nM) 0%.
With `COc1cc(C2c3cc4c(cc3C(OC(=O)COc3ccc(C=O)cc3)C3COC(=O)C23)OCO4)cc(OC)c1OC` (stereo not drawn) [Compound 000323, Podophyllotoxin-4-O-ester of 4-formylphenoxyacetic acid], the “In Vitro Efficacy: Survival (%) of HCT116” value by setting is: (10 nM) 90.86%; (100 nM) 0%; (1000 nM) 0%.
Take `CC[C@@]1(OC(=O)COc2ccc(C(=O)O[C@H]3c4cc5c(cc4[C@@H](c4cc(OC)c(OC)c(OC)c4)C4C(=O)OCC43)OCO5)cc2)C(=O)OCc2c1cc1n(c2=O)Cc2cc3ccccc3nc2-1` (stereo partly drawn) [Compound 000801, Podophyllotoxin-4-O-ester of camptothecin-20-O-ester of 4-carboxylicphenoxyacetic acid]: the “In Vitro Efficacy: Survival (%) of HCT116” value by setting is: (1 nM) 99.83%; (10 nM) 0%; (100 nM) 0%; (1000 nM) 0%.
Turning to `COc1cc(C2c3cc4c(cc3C(OC(=O)COc3ccc(I)cc3)C3COC(=O)C23)OCO4)cc(OC)c1OC` (stereo not drawn) [Compound 000614, Podophyllotoxin-4-O-ester of 4-iodophenoxyacetic acid], the “In Vitro Efficacy: Survival (%) of HCT116” value is, setting by setting: (10 nM) 84.99%; (100 nM) 0%; (1000 nM) 0%.
In the case of `COc1cc([C@@H]2c3cc4c(cc3[C@H](OC(=O)COc3ccc5c(C)c(Cl)c(=O)oc5c3)[C@H]3COC(=O)[C@H]23)OCO4)cc(OC)c1OC` [Compound 000405, Podophyllotoxin-4-O-ester of 7-(carboxymethoxy)-3-chloro-4-methylcoumarin], the “In Vitro Efficacy: Survival (%) of HCT116” value is recorded as 90.45% (10 nM), 0% (100 nM) and 0% (1000 nM).
With `COc1cc([C@@H]2c3cc4c(cc3[C@H](OC(=O)c3cc(=O)c5ccccc5o3)[C@H]3COC(=O)[C@H]23)OCO4)cc(OC)c1OC` [Compound 000215, Podophyllotoxin-4-O-ester of chromone-2-carboxylic acid], the “In Vitro Efficacy: Survival (%) of HCT116” value by setting is: (10 nM) 92.46%; (100 nM) 0%; (1000 nM) 0%.
`COc1cc(C2c3cc4c(cc3C(OC(=O)CCC(=O)O)C3COC(=O)C23)OCO4)cc(OC)c1OC` (stereo not drawn) [Compound 000201, Podophyllotoxin-4-O-ester of hemisuccinic acid]: the “In Vitro Efficacy: Survival (%) of HCT116” value reads like this: (100 nM) 93.24%; (1000 nM) 0%.
On to `COc1cc(C2c3cc4c(cc3C(OC(=O)COC3CC(C)CCC3C(C)C)C3COC(=O)C23)OCO4)cc(OC)c1OC` (stereo not drawn) [Compound 000218, Podophyllotoxin-4-O-ester of (+)-menthoxyethanoic acid], for which the “In Vitro Efficacy: Survival (%) of HCT116” value (100 nM) worked out at 44.28% and the “In Vitro Efficacy: Survival (%) of HCT116” value (1000 nM) stood at 0%.
As for `COc1cc([C@@H]2c3cc4c(cc3[C@H](OC(=O)COc3ccc(Cl)cc3C)[C@H]3COC(=O)[C@H]23)OCO4)cc(OC)c1OC` [Compound 000317, Podophyllotoxin-4-O-ester of 4-chloro-2-methylphenoxyacetic acid], the “In Vitro Efficacy: Survival (%) of HCT116” value runs as follows: (10 nM) 99.49%; (100 nM) 0%; (1000 nM) 0%.
Take `COc1cc([C@@H]2c3cc4c(cc3[C@@H](O[C@@H]3O[C@@H]5CO[C@@H](C)O[C@H]5[C@H](O)[C@H]3O)[C@H]3COC(=O)[C@H]23)OCO4)cc(OC)c1O` [Etoposide, reference compound]: the “In Vitro Efficacy: Survival (%) of HCT116” value (10 nM) is listed as 100%.
With `COc1cc(C2c3cc4c(cc3C(OC(=O)c3ccc([N+](=O)[O-])o3)C3COC(=O)C23)OCO4)cc(OC)c1OC` (stereo not drawn) [Compound 000202, Podophyllotoxin-4-O-ester of 5-nitro-2-furoic acid], the “In Vitro Efficacy: Survival (%) of HCT116” value is, setting by setting: (10 nM) 81.68%; (100 nM) 0%; (1000 nM) 0%.
For the compound `COc1cc(C2c3cc4c(cc3C(OC(=O)C(NC(=O)OC(C)(C)C)C(C)c3ccccc3)C3COC(=O)C23)OCO4)cc(OC)c1OC` [Compound 000307, Podophyllotoxin-4-O-ester of N—BOC-erythro-D-β-Methylphenylalanine], the “In Vitro Efficacy: Survival (%) of HCT116” value by setting is: (100 nM) 93.49%; (1000 nM) 0%.
As for `COc1cc([C@@H]2c3cc4c(cc3[C@H](OC(=O)c3cccc(NC(=O)CCl)c3)[C@H]3COC(=O)[C@H]23)OCO4)cc(OC)c1OC` [Compound 000124, Podophyllotoxin-4-O-ester of 3-chloroacetamidobenzoic acid], the “In Vitro Efficacy: Survival (%) of HCT116” value runs as follows: (10 nM) 83.22%; (100 nM) 0%; (1000 nM) 0%.
